Measurements from patent US20050238577A1, “Isolation of epithelial cells or their biochemical contents from excreta after in vivo isotopic labeling” (The Regents of the University of California, priority 2004, published 2005).

Assay: Tolerability of maintained 2H2O body water enrichment
Format: in vivo
Settings: 1-10% of total body water labeled, maintained for weeks or months in humans (>100 people) and experimental animals; rapid changes in enrichment prevented
Text: Relatively high body water enrichments of ^2H2O (e.g., 1-10% of the total body water is labeled) may be achieved relatively inexpensively using the techniques of the invention. […] This finding in a large number of human subjects (>100 people) is contrary to previous concerns about vestibular toxicities at high doses of ^2H2O. The Applicant has discovered that as long as rapid changes in body water enrichment are prevented (e.g., by initial administration in small, divided doses), high body water enrichments of ^2H2O can be maintained with no toxicities. For example, the low expense of commercially available ^2H2O allows long-term maintenance of enrichments in the 1-5% range at relatively low expense (e.g., calculations reveal a lower cost for 2 months labeling at 2% ^2H2O enrichment, and thus 7-8% enrichment in the alanine precursor pool, than for 12 hours labeling of ^2H-leucine at 10% free leucine enrichment, and thus 7-8% enrichment in leucine precursor pool for that period).

[2H]O[2H] [^2H2O, deuterated water]
toxicity at maintained body water enrichment: without any evidence of toxicity
